Data set [1] in a line: In vitro transfection of cells with eGFP-mRNA lipid nanoparticle (LNP preparation), fluorescence imaging and flow cytometry. The class given is cell-based, mouse. The settings on record: mouse, dc2.4 cells, 200 ng of mRNA per well, after 24 hours; read-out: Cell viability, %. The text has this: (§1) This example used mouse bone marrow-derived dendritic cells DC2.4 (purchased from Millipore) as the validation cell line for a lipid nanoparticle transfection experiment. DC2.4 cells adhered to the wall for growth. All operational steps of cell culture strictly followed the prescribed procedures, using sterile reagents for aseptic operations under a sterile workbench. The main operational steps involved were as follows: • 1) Cell recovery: the preserved cell cryopreservation solution was removed from the -80 °C freezer and immediately placed in a 37 °C water bath for rapid and continuous shaking, allowing it to completely melt within one minute. Fresh culture medium was added to a 15 mL centrifuge tube in advance, and the cell fluid was added to the centrifuge tube in a biosafety cabinet. A centrifuge tube of the same mass was taken, placed symmetrically in the centrifuge, and centrifuged at low speed for 5 minutes at 1200 rpm. After centrifugation, the upper clear liquid was removed, and an appropriate amount of culture medium was slowly added along the tube wall. After the cells were gently blown and dispersed evenly, the cell suspension was drawn and added to the prepared culture bottle. The state and distribution of cells in the early stage of recovery were observed under a microscope. The culture bottle was incubated in a 5% CO2 incubator at 37 °C, and the recovery time was recorded. • 2) Cell passaging: Under a microscope, if the cell density in the field of view reached 80%-90%, cells could be passaged and cultured. Adherent cells required trypsin digestion. In order to avoid residual serum in the culture medium reducing trypsin activity, the original culture medium was removed, and DPBS solution was added to wash once. After suctioning out the DPBS solution, trypsin was added to degrade the protein at the intercellular junction, thereby separating the cells and facilitating further cultivation. The mixture was gently shaken well and placed into the incubator for digestion for 2-3 minutes. After digestion was complete, an appropriate amount of culture medium was immediately added to the original culture dish to terminate digestion. Finally, a pipette was used to carefully blow off the cells and blow them until they were evenly dispersed, and then the cells were inoculated and subcultured in a certain proportion according to experimental requirements.
(§2) Transfection of DC2.4 cells • 1) DC2.4 cell recovery: the frozen DC2.4 cells were taken out from the -80 °C refrigerator and immediately put into a 37 °C water bath for rapid thawing. After melting, they were added to the preheated culture medium, and centrifuged at 1200 rpm for 5 minutes. The supernatant was discarded, and an appropriate amount of DMEM medium containing 10% FBS was added to resuspend the recovered DC2.4 cells, which were placed in a 37 °C, 5% CO2 incubator for activation culture. • 2) According to experimental requirements, DC2.4 cells were transfected into 24 well plates one day in advance. By counting cells, the number and viability of cells were recorded, and a cell suspension with 2 × 10^5 cells per well were taken. Then, a certain volume of DMEM medium containing 10% FBS was added and mixed evenly, wherein 1 mL was added per well for subsequent transfection experiments. • 3) After 24 hours, the culture medium was gently aspirated with a pipette 30 minutes in advance, and each well was washed with 1 mL of DPBS and aspirated. […] The mixture was placed in a 37 °C, 5% CO2 incubator for activation cultivation. • 6) After 24 hours, cell viability (%), eGFP positivity rate (%), and mean fluorescence intensity data were obtained through cell fluorescence imaging and flow cytometry.

The next data set has as its system DC2.4 cells. Described as above. The class given is cell-based, mouse. The conditions noted are these: eGFP positivity rate, DC2.4 cells, 200 ng of mRNA per well, after 24 hours.
Text: as §1, §2

Data set [2] is described as follows: Size and polydispersity index (PDI) of the lipid nanoparticle by dynamic light scattering. Type of data set: physicochemical. The conditions noted are these: LNP encapsulating eGFP mRNA, ionizable lipid/DOPE/cholesterol/DMG-PEG2000 50/10/48.25/1.25 mol%, N/P 12; for Particle size: in nm (unit assumed). How it is done: (§3) The ionizable lipid compound and positive control 1 from Example I were dissolved in ethanol at a molar ratio of 50:10:48.25:1.25 with DOPE, cholesterol, and DMG-PEG2000 (all purchased from A.V.T (Shanghai) Pharmaceutical Co., Ltd.) to prepare an ethanol lipid solution. The enhanced green fluorescent protein (eGFP) mRNA was diluted in 20 mM citrate buffer (pH=6.1) to obtain an mRNA aqueous solution. By using a microfluidic device (Micro&Nano Biologics Co., Ltd., model: INano ™ L) mix ethanol lipid solution and mRNA aqueous solution in a volume ratio of 1:3 to prepare a lipid nanoparticle with a total lipid to mRNA N/P ratio of 12. The medium was replaced by ultrafiltration, ethanol was removed and volumed with DPBS. Finally, the lipid nanoparticle was filtered through a 0.2 µm sterile filter to obtain an LNP preparation encapsulating eGFP mRNA using ionizable lipid/DOPE/cholesterol/DMG-PEG2000 (50/10/48.25/1.25 mol%), with an mRNA content of 0.002 mg/ml-0.5 mg/mL.
(§4) Using Malvern Zetasizer Nano ZS (Malvern UK), the size and polydispersity index (PDI) of the lipid nanoparticle were determined by dynamic light scattering in 173° backscatter detection mode, and the encapsulation efficiency was measured by Ribogreen method.

A short description of data set [3]: Encapsulation efficiency of the lipid nanoparticle (eGFP mRNA) by Ribogreen method. Type of data set: physicochemical. The conditions noted are these: LNP encapsulating eGFP mRNA, ionizable lipid/DOPE/cholesterol/DMG-PEG2000 50/10/48.25/1.25 mol%, N/P 12. How it is done:
as §3, §4

For the molecule `CC(C)=CCC/C(C)=C/COC(=O)CCCCCCCN(CCO)CCCN(CCCCCCCC(=O)OC/C=C(\C)CCC=C(C)C)CCCCCCCC(=O)OC/C=C(\C)CCC=C(C)C` [Example 3, Di((E)-3,7-dimethyloctan-2,6-dien-1-yl)8,8'-((3-((8-(((E)-3,7-dimethyloctan-2,6-dien-1-yl)oxo)-8-oxooctyl)(2-hydroxyethyl)amino)propyl)azanediyl)dioctanoate], the viability at 24 h in data set [1] came out at 68.6%. Further, in the data set with DC2.4 cells, the “Positive rate, %” value amounted to 93.43%. Besides, in data set [2], the PDI was determined as 0.12 and the Particle size is recorded as 92.13. Further, in data set [3], the “Encapsulation rate, %” value stood at 95.96%.
For the molecule `CCCCCCCOC(=O)CCCCCCCN(CCO)CCCN(CCCCCCCC(=O)OCCCCCCC)CCCCCCCC(=O)OCCCCCCC` [Example 4, Diheptyl 8,8'-((3-((8-(heptyloxy)-8-oxooctyl)(2-hydroxyethyl)amino)propyl)azanediyl)dioctanoate], the viability at 24 h in data set [1] was 75.9%. In the data set on DC2.4 cells, the “Positive rate, %” value stood at 78.26%. Also, the PDI in data set [2] is given as 0.25. For the same molecule, the “Encapsulation rate, %” value in data set [3] was found to be 60.89%.
With `CCCCCOC(=O)CCCCCCCN(CCO)CCCN(CCCCCCCC(=O)OCCCCC)CCCCCCCC(=O)OCCCCC` [Example 5, Dipentyl 8,8'-((3-((2-hydroxyethyl)(8-oxo-8-(pentyloxy)octyl)amino)propyl)azanediyl)dioctanoate], in data set [1], the viability at 24 h stood at 86.6%. In addition, the “Positive rate, %” value with DC2.4 cells turned out to be 83.41%. Also, the PDI in data set [2] was determined as 0.16. Besides, the “Encapsulation rate, %” value in data set [3] is listed as 94.14%.
For `CCCCCC/C=C\COC(=O)CCCCCCCN(CCO)CCCN(CCCCCCCC(=O)OC/C=C\CCCCCC)CCCCCCCC(=O)OC/C=C\CCCCCC` [Example 6, Di((Z)-non-2-en-1-yl)8,8'-((3-((2-hydroxyethyl)(8-(((Z)-non-2-en-1-yl)oxo)-8-oxooctyl)amino)propyl)azanediyl)dioctanoate] the same measures were 80.5%, 85.29%, 0.13 and 92.30%.
For `CC/C=C\C/C=C\CCCOC(=O)CCCCCCCN(CCO)CCCN(CCCCCCCC(=O)OCCC/C=C\C/C=C\CC)CCCCCCCC(=O)OCCC/C=C\C/C=C\CC` [Example 7, Di((4Z,7Z)-dec-4,7-dien-1-yl)8,8'-((3-((8-(((4Z,7Z)-dec-4,7-dien-1-yl)oxo)-8-oxooctyl)(2-hydroxyethyl)amino)propyl)azanediyl)dioctanoate], in that order: 76.9%, 75.68%, 0.09 and 86.64%.
Take `CC/C=C\CCCCCOC(=O)CCCCCCCN(CCO)CCCN(CCCCCCCC(=O)OCCCCC/C=C\CC)CCCCCCCC(=O)OCCCCC/C=C\CC` [Example 8, Di((Z)-non-6-en-1-yl)8,8'-((3-((2-hydroxyethyl)(8-(((Z)-non-6-en-1-yl)oxo)-8-oxooctyl)amino)propyl)azanediyl)dioctanoate]: the viability at 24 h in data set [1] was 63.2%. For the same molecule, the “Positive rate, %” value in the data set on DC2.4 cells was 82.12%. Moreover, the PDI in data set [2] is given as 0.21. Besides, in data set [3], the “Encapsulation rate, %” value was 80.59%.
As for `CCCCCCCCCOC(=O)CCCCCCCN(CCO)CCCN(CCCCCCCC(=O)OCCCCCCCCC)CCCCCCCC(=O)OCCCCCCCCC` [Example 9, Dinonyl 8,8'-((3-((2-hydroxyethyl)(8-(nonoxy)-8-oxooctyl)amino)propyl)azanediyl)dioctanoate], the viability at 24 h in data set [1] was 55.6%. Further, in the data set on DC2.4 cells, the “Positive rate, %” value is 83.84%. This molecule had a PDI in data set [2] of 0.22. In addition, the “Encapsulation rate, %” value in data set [3] amounted to 78.69%.
On to `CC/C=C\COC(=O)CCCCCCCN(CCO)CCCN(CCCCCCCC(=O)OC/C=C\CC)CCCCCCCC(=O)OC/C=C\CC` [Example 10, Di((Z)-pent-2-en-1-yl)8,8'-((3-((2-hydroxyethyl)(8-oxo-8-(((Z)-pent-2-en-1-yl)oxo)octyl)amino)propyl)azanediyl)dioctanoate], for which the viability at 24 h in data set [1] was 95%. Also, in the data set with DC2.4 cells, the “Positive rate, %” value stood at 95.39%. For the same molecule, in data set [2], the PDI turned out to be 0.14 and the Particle size is listed as 90.73. Besides, in data set [3], the “Encapsulation rate, %” value stood at 89.02%.
With `CCCCCCCCCCCCCOC(=O)CCCCCCCN(CCO)CCCN(CCCCCCCC(=O)OCCCCCCCCCCCCC)CCCCCCCC(=O)OCCCCCCCCCCCCC` [Example 13, Ditridecyl 8,8'-((3-((2-hydroxyethyl)(8-oxo-8-(tridecyloxy)octyl)amino)propyl)azanediyl)dioctanoate], in data set [1], the viability at 24 h is 91.3%. Also, the “Positive rate, %” value in the data set with DC2.4 cells was found to be 93.23%. The same molecule displayed a PDI in data set [2] of 0.21. Further, in data set [3], the “Encapsulation rate, %” value is given as 96.34%.
`CCCCCCCCCCCOC(=O)CCCCCCCCCN(CCO)CCCN(CCCCCCCCCC(=O)OCCCCCCCCCCC)CCCCCCCCCC(=O)OCCCCCCCCCCC` [Example 14, Diundecyl 10,10'-((3-((2-hydroxyethyl)(10-oxo-10-(undecyloxy)decyl)amino)propyl)azanediyl)dicaprate]: in data set [1], the viability at 24 h came out at 97.9%. Besides, the “Positive rate, %” value with DC2.4 cells worked out at 95.61%. For the same molecule, in data set [2], the PDI is reported as 0.21 and the Particle size came out at 98.45. In data set [3], the “Encapsulation rate, %” value is listed as 97.23%.
With `CCCCCC/C=C\COC(=O)CCCCCCCCCN(CCO)CCCN(CCCCCCCCCC(=O)OC/C=C\CCCCCC)CCCCCCCCCC(=O)OC/C=C\CCCCCC` [Example 15, Di((Z)-non-2-en-1-yl)10,10'-((3-((2-hydroxyethyl)(10-(((Z)-non-2-en-1-yl)oxo)-10-oxodecyl)amino)propyl)azanediyl)dicaprate], the viability at 24 h in data set [1] worked out at 84.4%. The “Positive rate, %” value in the data set on DC2.4 cells turned out to be 91.39%. The same molecule displayed a PDI in data set [2] of 0.20. The “Encapsulation rate, %” value in data set [3] is recorded as 90.28%.
On to `CCCCCC/C=C\COC(=O)CCCN(CCO)CCCN(CCCC(=O)OC/C=C\CCCCCC)CCCC(=O)OC/C=C\CCCCCC` [Example 16, Di((Z)-non-2-en-1-yl)4,4'-((3-((2-hydroxyethyl)(4-(((Z)-non-2-en-1-yl)oxo)-4-oxobutyl)amino)propyl)azanediyl)dibutanoate], for which, in data set [1], the viability at 24 h is 84.6%. Further, the “Positive rate, %” value with DC2.4 cells worked out at 94.18%. In data set [2], the PDI worked out at 0.18 and the Particle size is given as 99.65. Moreover, the “Encapsulation rate, %” value in data set [3] is on record as 86.73%.
For the molecule `CCC/C=C\COC(=O)CCCCCCCN(CCO)CCCN(CCCCCCCC(=O)OC/C=C\CCC)CCCCCCCC(=O)OC/C=C\CCC` [Example 17, Di((Z)-hexyl-2-en-1-yl)8,8'-((3-((8-(((Z)-hexyl-2-en-1-yl)oxo)-8-oxooctyl)(2-hydroxyethyl)amino)propyl)azanediyl)dioctanoate], the viability at 24 h in data set [1] is 71.1%. In the data set on DC2.4 cells, the “Positive rate, %” value is given as 95.88%. Further, in data set [2], the PDI stood at 0.26. The “Encapsulation rate, %” value in data set [3] was 90.04%.

Source of the values: patent publication EP4678629A1, “IONIZABLE LIPID MOLECULE, PREPARATION METHOD THEREFOR AND USE THEREOF” (Maxirna (Shanghai) Pharmaceutical Co., Ltd., priority 2023, dated 2024).
